In patent US20120034193A1, “TREATMENT OF NEUROTROPHIC FACTOR MEDIATED DISORDERS” (priority 2009, published 2012):

Tests used:
[1] = tested on: BDNF; assay: Brain BDNF in aged rats (ELISA); assay type: in vivo, Sprague Dawley (SD) rats; conditions: 18 mg/kg/day oral, 3 months, aged 1.21, young 1.65
Experimental: Old Sprague Dawley (SD) rats (20 month old) were orally administered sarsasapogenin or smilagenin (18 mg/kg/day) for 3 months. […] Young SD rats (4 month old) were used as healthy positive control. At the end of the treatment the brains removed for quantification of BDNF using an ELISA.

[2] = tested on: BDNF mRNA; assay: BDNF mRNA expression in rat cortical neurones under basal conditions (rt RT-PCR); assay type: cell-based; conditions: 30 nM
Experimental: Rat cortical neurones were cultured by modification of a method previously described (Singer, et al., Neuroscience Letters, 1996, 212, pp. 13-16). Twelve days after the start of culturing, sarsasapogenin (30 nM), smilagenin (30 nM), 4-methylcatechol (0.5 mM), an inducer of NGF and BDNF release (Saporito et al., Experimental Neurology., 1993, 123, pp. 295-302; Nitta et al., Journal of Pharmacology and Experimental Therapeutics, 1999, 291, pp. 1276-1283) or vehicle (dimethyl sulfoxide, DMSO, 0.25%) were added for 1, 3 or 6 h. After incubation the total messenger ribonucleic acid (mRNA) was quantified using real time reverse transcription-polymerase chain reaction (rt RT-PCR).

[3] = tested on: rat primary cortical neurones; assay: Inhibition of induced neurite outgrowth by K252a or PD98059; assay type: cell-based; conditions: 30 nM, 24 h
Experimental: (§1) Cortical neurones were cultured as detailed above. Neurones were exposed to vehicle (DMSO, 0.25%) or K252a (100 nM) for 1 h. After 1 h, vehicle, sarsasapogenin, smilagenin (30 nM) or BDNF (1.85 nM) was added to the medium in the maintained presence of K252a. Following 24 h exposure to sarsasapogenin or smilagenin (30 nM), vehicle (DMSO, 0.25%) or BDNF (1.85 nM), the neurones were washed using phosphate-buffered saline (PBS) and fixed in glutaraldehyde (2.5%) in PBS. Photographs of 40-60 neurones expressing neurites were taken with a camera fixed on a microscope (objective ×20, Nikon). The neurite length was measured by an analysis of the photographs.
as §1, with “PD98059 (10 μM)” for “K252a (100 nM)”, “vehicle,” for “vehicle, sarsasapogenin,”, “PD98059.” for “K252a.”, “to” for “to sarsasapogenin or”, “PBS” for “phosphate-buffered saline (PBS)”

[4] = Tissue distribution after a single oral administration, dog; assay type: in vivo
[5] = tested on: Rat cortical neurones; assay: Reversal of glutamate-induced damage in cortical neurones; assay type: cell-based; conditions: 30 nM for 24 h after glutamate 100 μM 10 min
Experimental: The rat cortical neurones were prepared as detailed above. On day 13, cultures were exposed to glutamate (100 μM) for 10 min at 37° C. in 5% CO2/95% air atmosphere in defined medium. Following the incubation period, the cultures were washed and maintained in fresh medium, containing sarsasapogenin, smilagenin or vehicle. Cells were cultured for a further 24 h after glutamate exposure and were then assessed for neuronal damage as detailed above.

[6] = tested on: Rat spinal motor neurones; assay: Neuronal survival and neurite outgrowth in spinal motor neurones; assay type: cell-based; conditions: 3 days
Experimental: Rat spinal motor neurones were prepared according to a previously described method (Martinou et al, Neuron, 8, 737-744, 1992). Following 3 days of culturing with sarsasapogenin, smilagenin, vehicle (DMSO, 0.25%), Xaliproden, or BDNF, spinal cord motor neurones were washed twice in PBS, fixed in a cold solution of alcohol (95%) and acetic acid (5%) for 5 min and then rinsed 3 times in PBS. Neurones were stained using a monoclonal antibody anti β-tubulin and an anti mouse Immunoglobulin G. These antibodies stained neurone cell bodies (quantifying the neuroprotective effect) and neurites (quantifying the neurotrophic effect). The cell nuclei were stained by a fluorescent marker. After 1 h of incubation, cells were washed 3 times in PBS. […] A series of pictures were taken using a camera controlled by computer software. All the images were taken under the same conditions. Analyses of the number of cells labelled with anti β-tubulin antibodies and of the total number of cells (number of stained nuclei) were performed using LUCIA 6.0 software.

[7] = tested on: Rat spinal motor neurones; assay: Reversal of glutamate-induced damage in spinal motor neurones; assay type: cell-based
Experimental: The rat spinal motor neurones were prepared as detailed above. On day 10, the medium was removed and the cultures exposed to glutamate (4 μM) for 10 min at 37° C. in 5% CO2/95% air atmosphere in defined medium. After the glutamate exposure, cultures were washed with DMEM at 37° C. then placed in fresh culture medium containing sarsasapogenin, smilagenin, vehicle or BDNF. After 48 h, the extent of motor neurone damage was determined as detailed above. This Example develops the work reported in Example 8 of PCT patent application No. WO-A-03/082893.

[8] = tested on: Rat cortical neurones; assay: Neuritogenesis in cortical neurones; assay type: cell-based; conditions: 24 h; for Neurones displaying neurites (%): control 39.35 ± 2.06
Experimental: Rat cortical neurones were cultured by modification of a previously described method (Singer, et al., Neuroscience Letters, 1996, 212, pp. 13-16). Cells were cultured with sarsasapogenin, smilagenin, vehicle (DMSO 0.25%), GDNF, BDNF or NGF for 24 h. For each group, 15 pictures showing neurones displaying neurites were selected at random in each field, and for each neurone the longest neurite was measured. The neurite number was measured by counting the number of neurones displaying neurites, the number of neurones not displaying neurites and the number of total neurones in each field. Six fields per well were examined.
The results are shown in Table 15 below, expressed as the number of neurones with neurites per field as a percentage of the total number of neurones per field.

[9] = Dog F, 25 mg/kg single oral, 4 h
[10] = Dog F, 25 mg/kg single oral, 24 h
[11] = Dog F, 25 mg/kg single oral, 168 h
[12] = Dog M, 25 mg/kg single oral, 4 h
[13] = Dog M, 25 mg/kg single oral, 24 h
[14] = Dog M, 25 mg/kg single oral, 168 h
[15] = 0.03 nM for 48 h after glutamate 4 μM 10 min
[16] = 3 nM for 48 h after glutamate 4 μM 10 min
[17] = 300 nM for 48 h after glutamate 4 μM 10 min
[18] = Dog M, 10 mg/kg single oral, 2 h
[19] = Dog M, 10 mg/kg single oral, 24 h
[20] = Dog M, 10 mg/kg single oral, 168 h

Row | SMILES | BDNF (ng/g tissue) [1] [ng/g tissue] | BDNF mRNA, % increase above control ([2]; 1 h) | BDNF mRNA, % increase above control ([2]; 3 h) [%] | BDNF mRNA, % increase above control ([2]; 6 h) | Neurite length (% of control) ([3]; no inhibitor) | Neurite length (% of control) ([3]; with K252a (100 nM)) | Neuronal survival (% of control) [5] | Neurite outgrowth (% of control) ([6]; 30 nM) | Neuronal survival (% of control) ([6]; 30 nM) | Neurite outgrowth (% of control) ([6]; 100 nM) | Neuronal survival (% of control) ([6]; 100 nM) | Neuronal survival (% of control) [7, 15] | Neuronal survival (% of control) [7, 16] | Neuronal survival (% of control) [7, 17] | Neurite length (% of control) ([8]; 3 nM) | Neurones displaying neurites (%) ([8]; 3 nM) | Neurite length (% of control) ([8]; 30 nM) | Neurones displaying neurites (%) ([8]; 30 nM) | also measured
1 | C[C@H]1CC[C@@]2(OC1)O[C@H]1C[C@H]3[C@@H]4CC[C@@H]5C[C@@H](O)CC[C@]5(C)[C@H]4CC[C@]3(C)[C@H]1[C@@H]2C [Sarsasapogenin, sarsasapogenin] | 1.41 ± 0.07 | No increase | 22 | No increase | 126.74 ± 5.76^++++ % of control | 93.12 ± 2.88 % of control | 103.43 ± 5.10 % of control | 129.98 ± 5.47 % of control | 119.14 ± 3.33 % of control | 137.38 ± 7.93 % of control | 117.87 ± 3.63 % of control | 101.09 ± 4.12 % of control | 108.10 ± 3.56 % of control | 120.43 ± 7.46 % of control | 168.29 ± 6.12 % of control | 52.40 ± 2.63 | 156.74 ± 4.06 % of control | 57.32 ± 2.54 | Concentration of compound, Brain [4, 9]: 0.128 ng equivalents/g tissue; Concentration of compound, Plasma [4, 9]: 0.184 ng equivalents/g tissue; Concentration of compound, Spinal cord [4, 9]: 0.515 ng equivalents/g tissue; Concentration of compound, Brain [4, 10]: 8.64 ng equivalents/g tissue; Concentration of compound, Plasma [4, 10]: 1.79 ng equivalents/g tissue; Concentration of compound, Spinal cord [4, 10]: 5.79 ng equivalents/g tissue; Concentration of compound, Brain [4, 11]: 0.535 ng equivalents/g tissue; Concentration of compound, Plasma [4, 11]: 0.115 ng equivalents/g tissue; Concentration of compound, Spinal cord [4, 11]: 1.43 ng equivalents/g tissue; Concentration of compound, Brain [4, 12]: 1.37 ng equivalents/g tissue; Concentration of compound, Plasma [4, 12]: 0.641 ng equivalents/g tissue; Concentration of compound, Spinal cord [4, 12]: 1.13 ng equivalents/g tissue; Concentration of compound, Brain [4, 13]: 2.33 ng equivalents/g tissue; Concentration of compound, Plasma [4, 13]: 0.196 ng equivalents/g tissue; Concentration of compound, Spinal cord [4, 13]: 1.82 ng equivalents/g tissue; Concentration of compound, Brain [4, 14]: 0.605 ng equivalents/g tissue; Concentration of compound, Plasma [4, 14]: 0.309 ng equivalents/g tissue; Concentration of compound, Spinal cord [4, 14]: 1.49 ng equivalents/g tissue
2 | C[C@@H]1CC[C@@]2(OC1)O[C@H]1C[C@H]3[C@@H]4CC[C@@H]5C[C@@H](O)CC[C@]5(C)[C@H]4CC[C@]3(C)[C@H]1[C@@H]2C [Smilagenin, smilagenin] | 1.34 ± 0.07 | No increase | 40 | No increase | 146.78 ± 6.75^++++ % of control | 94.36 ± 3.96 % of control | 111.06 ± 3.40 % of control | 163.66 ± 9.28 % of control | 120.11 ± 2.92 % of control | 164.75 ± 5.57 % of control | 121.21 ± 2.75 % of control | 90.98 ± 2.46 % of control | 101.53 ± 3.18 % of control | 106.61 ± 4.24 % of control | 159.03 ± 4.91 % of control | 53.84 ± 2.93 | 176.71 ± 6.34 % of control | 53.46 ± 2.13 | Neurite length (% of control) ([3]; with PD98059 (10 μM)): 120.27 ± 5.80 % of control; Concentration of compound, Brain [4, 18]: 3670 ng equivalents/g tissue; Concentration of compound, Plasma [4, 18]: 3878 ng equivalents/g tissue; Concentration of compound, Spinal cord [4, 18]: 1805 ng equivalents/g tissue; Concentration of compound, Brain [4, 19]: 5813 ng equivalents/g tissue; Concentration of compound, Plasma [4, 19]: 1508 ng equivalents/g tissue; Concentration of compound, Spinal cord [4, 19]: 3647 ng equivalents/g tissue; Concentration of compound, Brain [4, 20]: 1727 ng equivalents/g tissue; Concentration of compound, Plasma [4, 20]: 1129 ng equivalents/g tissue; Concentration of compound, Spinal cord [4, 20]: 3165 ng equivalents/g tissue
